Measurements as given in US11951131B2, “Anti-SLAMF7 chimeric antigen receptors” (The United States of America, as represented by the …, priority 2018, dated 2024).

Experiments:
SLAMF7-K562 = assay: IFN-gamma ELISA, CAR T cells cultured overnight with SLAMF7-K562 target cells; type: cell-based, human; conditions: Table E; overnight culture
Text: (§1) MM.1S is a SLAMF7^+ multiple myeloma cell line that was obtained from American Type Culture Collection (ATCC). A549 is a BCMA-negative lung cancer cell line (ATCC). TC71 is a BCMA-negative sarcoma cell line. CCRF-CEM, 293T, and A549 are SLAMF7-negative cell lines (ATCC). COL0207, HepG2, U251, Panc10.05, and TC71 are […] that were kind gifts from Dr. Steven Rosenberg, National Cancer Institute. SLAMF7-K562 are K562 cells (ATCC) which were transduced with the gene for full-length SLAMF7. SLAMF7-RPMI are RPMI8226 cells (ATCC) which were transduced with the gene for full-length SLAMF7. NGFR-K562 are K562 cells which were transduced with the gene for low-affinity nerve growth factor (Kochenderfer et al., J. Immunother., 32(7): 689-702 (2009)). All of the human samples mentioned were obtained from patients enrolled in IRB-approved clinical trials at the National Cancer Institute.
(§2) One-hundred thousand SLAMF7^+ or SLAMF7-negative target cells were combined with 100,000 CAR-transduced T cells in duplicate wells of a 96 well round bottom plate in 200 µL of AIM V™ medium (Invitrogen) plus 5% human serum. The plates were incubated at 37° C. for 18-20 hours. Following the incubation, ELISAs (enzyme-linked immunosorbent assays) for IFNγ were performed by using standard methods.
(§3) The T cells columns indicate whether T cells were transduced with Luc90-CD828Z, Luc63-CD828Z, or were untransduced. The % CAR^+ in Table B-1 was determined by staining the T cells with Protein L. Except for the % CAR^+ column, all values are pg/mL of IFN-gamma. T cells that were either untransduced or transduced with one of the indicated CARs were cultured with target cells overnight and a standard IFN-gamma ELISA was performed on the culture supernatant.
(§4) All values are pg/mL of IFN-gamma. T cells that were either untransduced or transduced with one of the indicated CARs were cultured with target cells overnight, and a standard IFN-gamma ELISA was performed on the culture supernatant.

NGFR-K562 = assay: IFN-gamma ELISA, CAR T cells with NGFR-K562 target cells; type: cell-based, human; conditions: Table E
Text: as §1, §2, §3, §4
(§5) The values in the cells are pg/mL of IFN-gamma. T cells that were either untransduced or transduced with one of the indicated CARs were cultured with target cells overnight, and a standard IFN-gamma ELISA was performed on the culture supernatant. The concentrations of 0, 50, or 200 ng/mL at the top of each column indicates the concentration of soluble SLAMF7 added to all T cell plus target cell overnight cultures in that column. The soluble SLAMF7 was added at the beginning of the overnight culture.

T cells only = assay: IFN-gamma ELISA, T cells only (no target cells); type: cell-based, human; conditions: Table E
Procedure: as §2, §3, §4, §5

MM.1S = assay: IFN-gamma ELISA, CAR T cells with MM.1S target cells; type: cell-based, human; conditions: Table E
Text: as §1, §2, §4

CCRF-CEM = assay: IFN-gamma ELISA, CAR T cells with CCRF-CEM target cells; type: cell-based, human; conditions: Table E
Text: as §1, §2, §4

SLAMF7^+ MM.1S cells = assay: Cytotoxicity assay (4 hours, relative to CCRF-CEM cells); type: cell-based, human; conditions: MM.1S relative to control CCRF-CEM cells (FIG. 8A)
Procedure: Cytotoxicity assays were conducted as previously described (see Kochenderfer et al., J. Immunother., 32(7): 689-702 (2009)). Cytotoxicity was measured by comparing survival of SLAMF7^+ target cells relative to the survival of negative-control CCRF-CEM cells. Both of these cell types were combined in the same tubes with CAR-transduced T cells. CCRF-CEM negative control cells were labeled with the fluorescent dye 5-(and -6)-(((4-chloromethyl)benzoyl)amino) tetramethylrhodamine (CMTMR) (Invitrogen), and SLAMF7^+ target cells were labeled with CFSE. Cocultures were set up in sterile 5 mL test tubes (BD Biosciences) in duplicate at multiple T cell to target cell ratios. The target cells contained in the tubes were 50,000 SLAMF7^+ target cells along with 50,000 CCRF-CEM negative-control cells. The cultures were incubated for 4 hours at 37° C. Immediately after the incubation, 7AAD (7-amino-actinomycin D) (BD Biosciences) was added, and flow cytometry acquisition was performed. For each T cell plus target-cell culture, the percent survival of SLAMF7^+ target cells was determined by dividing the percent live SLAMF7^+ cells by the percent live CCRF-CEM negative control cells. The corrected percent survival of SLAMF7^+ target cells was calculated by dividing the percent survival of SLAMF7^+ target cells in each T cell plus target cell culture by the ratio of the percent live SLAMF7^+ target cells to percent live CCRF-CEM negative-control cells in tubes containing only SLAMF7^+ target cells and CCRF-CEM cells without effector T cells. This correction was necessary to account for variation in the starting cell numbers and for spontaneous target cell death. Cytotoxicity was calculated as follows: the percent cytotoxicity of […] target cells=100−corrected percent survival of SLAMF7^+ target cells.

SLAMF7-K562 target cells = assay: CFSE proliferation assay; type: cell-based, human; conditions: SLAMF7-K562 versus NGFR-K562 target cells, 4 days (FIGS. 8B, 8C)
Text: Cocultures were set up in 24-well plates. Target cells included in cocultures were either 0.5×10^6 irradiated SLAMF7-K562 cells or 0.5×10^6 irradiated NGFR-K562 cells. The cocultures also included 1×10^6 T cells from cultures that had been transduced with either […]. The T cells were labeled with carboxy fluorescein diacetate succinimidyl ester (CFSE, Invitrogen) as previously described. The medium used in the cocultures was AIM V™ (Invitrogen) plus 5% human AB serum. IL-2 was not added to the medium. Four days after initiation, the live cells in each coculture were counted with trypan blue for dead cell exclusion, and flow cytometry was performed by Protein L staining.

IC9-expressing T cells = assay: 6-hour and 48-hour post-rimiducid T cell death analysis; type: cell-based, human; conditions: for elimination of transduced T cells by AP1903: 1, 10 or 100 ng/mL; for annexin V staining of residual CAR^+ T cells: AP1903 6 hours; for annexin V staining of residual CAR+ cells: AP1903 48 hours
Procedure: On day 8 of culture, 1 million T cells from cultures that were either untransduced or transduced with one of the anti-SLAMF7 CARs cells were suspended at 1×10^6 T cells/mL in AIM V™ media (Invitrogen) plus 300 IU of interleukin-2. One million cells were added to each of 4 wells of a 12-well plate. A different concentration of AP1903 (MedChem Express, Princeton, N.J.) from was added to each well. AP1903 is also referred to as rimiducid. The concentrations of AP1903 evaluated were: 0, 1, 10, or 100 ng/mL.
Six hours and 48 hours after these cultures were set up, the cells were counted, washed, and stained with Protein L as described above. Next, the cells were washed twice with PBS, re-suspended in Annexin V binding buffer (BD Biosciences), and incubated with allophycocyanin-conjugated Annexin V (BD Biosciences) and 7AAD (BD Biosciences) for 15 minutes (mins) at room temp. The cells were immediately analyzed by flow cytometry.

[1] = system: IC9-Luc90-CD828Z CAR T cells; assay: AP1903 abrogation of CAR T-cell activity in MM.1S tumor-bearing mice; type: in vivo, NSG mice
Procedure: (§6) First, MM.1S human SLAMF7^+ multiple myeloma cell line tumors were established in immunodeficient mice. In this model, the MM.1S cells formed a solid cutaneous mass. Measurable tumors were allowed to develop over 7 days, and then the mice were treated with a single intravenous infusion of MSGV1-IC9-Luc90-CD828Z-transduced human T cells. NSG mice (NOD.Cg-Prkdc^scid Il2rg^tm1Wjl/SzJ) from The Jackson Laboratory, Bar Harbor, Me., were used. Mice received intradermal injections of 4×10^6 MM.1S cells. The cells were suspended in a 1:1 mixture of MATRIGEL™ gelatinous protein mixture (BD Biosciences) and PBS (Phosphate-buffered saline) for injection. Tumors were allowed to grow for 7 days, and then each mouse received a single intravenous infusion of human T cells that were transduced with one of 3 CARs: IC9-Luc90-CD828Z (suicide gene+anti-SLAMF7 CAR), Luc90-CD828Z (anti-SLAMF7 CAR alone), or a negative-control anti-CD19 CAR Hu19-CD828Z. A 4th group was left untreated. All groups included 5 mice. After CAR T-cell infusion, the tumors were measured with calipers every 3 days. The longest length and the length perpendicular to the longest length and the tumor thickness were multiplied together to obtain the tumor volume in mm^3. When the longest length reached 15 mm, mice were sacrificed. Animal studies were approved by the National Cancer Institute Animal Care and Use Committee.
MM.1S tumors were established in NSG mice as described in Example 9. The mice were treated with 2×10^6 IC9-Luc90-CD828Z T cells. The mice received 5 mg/kg of AP1903 intraeritoneally for either 3 days or 12 days after the CAR T-cell infusion. […] Also levels of IC9-Luc90-CD828Z CART cells in the mice receiving AP1903 were reduced as compared to the mice receiving the vehicle.

[2] = system: MM.1S human SLAMF7^+ multiple myeloma solid tumors; assay: MM.1S solid tumor model in NSG mice, anti-tumor efficacy; type: in vivo; conditions: 2 million CAR^+ T cells per mouse, 5 mice per group (FIG. 17)
Procedure: as §6
FIGS. 16A-16B show a dose-titration of IC9-Luc90-CD828Z-expressing T cells. In this experiment, immunocompromised NSG mice were injected intradermally with 4×10^6 MM.1S cells to form a solid mass. Mice were then treated with a single infusion of 0.5×10^6, 2×10^6, or 8×10^6, IC9-Luc90-CD828Z-expressing T cells. […] The tumor volume curves end when the first mouse of a group was sacrificed.
MM.'S tumors were established in NSG mice as described in Example 9. FIGS. 17A-17B show results in which mice bearing MM.1S tumors were treated with T cells expressing one of 3 different CARs: IC9-Luc90-CD828Z (suicide gene+anti-SLAMF7 CAR), Luc90-CD828Z (anti-SLAMF7 CAR alone), or a negative-control anti-CD19 CAR Hu19-CD828Z. A 4th group was left untreated in both experiments. All groups included 5 mice. The CARP T cell dose was 2 million CARP T cells per mouse. There were 5 mice in all groups.

[3] = T cells transduced with IC9-Luc90-CD828Z
[4] = T cells transduced with Luc90-CD828Z-IC9

Luc90-CD828Z-IC9: CAR plus suicide gene construct (SEQ ID NO: 30): Luc90-CD828Z, T2A, IC9 suicide gene 3′ to the CAR
IFN-gamma, SLAMF7-K562 (SLAMF7-K562): 2249 pg/mL
IFN-gamma, NGFR-K562 (NGFR-K562): 33 pg/mL
IFN-gamma, T-cells Alone (T cells only): 39 pg/mL
IFN-gamma, MM.1S (MM.1S): 1333 pg/mL
IFN-gamma, CCRF-CEM (CCRF-CEM): 42 pg/mL
killing of SLAMF7^+ target cells (SLAMF7^+ MM.1S cells): specifically killed the SLAMF7^+ MM.1S cells
proliferation (CFSE dilution) (SLAMF7-K562 target cells): proliferated more

CC[C@H](C(=O)N1CCCC[C@H]1C(=O)O[C@H](CCc1ccc(OC)c(OC)c1)c1cccc(OCC(=O)NCCNC(=O)COc2cccc([C@@H](CCc3ccc(OC)c(OC)c3)OC(=O)[C@@H]3CCCCN3C(=O)[C@@H](CC)c3cc(OC)c(OC)c(OC)c3)c2)c1)c1cc(OC)c(OC)c(OC)c1 [AP1903]
elimination of transduced T cells by AP1903 (IC9-expressing T cells; T cells transduced with IC9-Luc90-CD828Z, 6 hours): most transduced cells exposed to either 1, 10, or 100 ng/mL of AP1903 were eliminated
elimination of transduced T cells by AP1903 (IC9-expressing T cells; T cells transduced with IC9-Luc90-CD828Z, 48 hours): most transduced cells exposed to either 1, 10, or 100 ng/mL of AP1903 were eliminated
annexin V staining of residual CAR^+ T cells (IC9-expressing T cells; [3]): most residual CAR^+ T cells in the AP1903-treated cultures were annexin V^+
annexin V staining of residual CAR+ cells (IC9-expressing T cells; [3]): most residual CAR+ cells were annexin V^+
elimination of transduced T cells by AP1903 (IC9-expressing T cells; T cells transduced with Luc90-CD828Z-IC9, 6 hours): most transduced cells exposed to either 1, 10, or 100 ng/mL of AP1903 were eliminated
elimination of transduced T cells by AP1903 (IC9-expressing T cells; T cells transduced with Luc90-CD828Z-IC9, 48 hours): most transduced cells exposed to either 1, 10, or 100 ng/mL of AP1903 were eliminated
annexin V staining of residual CAR^+ T cells (IC9-expressing T cells; [4]): most residual CAR^+ T cells in the AP1903-treated cultures were annexin V^+
annexin V staining of residual CAR+ cells (IC9-expressing T cells; [4]): most residual CAR+ cells were annexin V^+
dependence of elimination on AP1903 concentration (IC9-expressing T cells; clinically-relevant range of concentrations tested (1-100 ng/mL)): did not depend on the concentration of AP1903
tumor outcome in mice receiving AP1903 after CAR T cells ([1]; 2×10^6 IC9-Luc90-CD828Z T cells, AP1903 5 mg/kg intraperitoneally (FIG. 18)): progressive tumors
levels of IC9-Luc90-CD828Z CAR T cells in mice ([1]; AP1903 5 mg/kg compared to vehicle): reduced

Hu19-CD828Z: negative-control anti-CD19 CAR [reference compound]
anti-tumor activity [2]: progressive tumors
